Laboratory results: patent US6906198B1, “Antipicornaviral compounds, their preparation and use” (Agouron Pharmaceuticals, Inc., priority 1998, dated 2005)
pEC50: −log10 of the molar value.

What was measured:
[1] = Cytotoxicity in mock-infected H1-HeLa cells (antirhinoviral assay, XTT); type: cell-based; conditions: human, 50% cytotoxic dose
Protocol: (§1) H1-HeLa cells were infected with HRV-14 at a multiplicity of infection (m.o.i.) of 0.13 (virus particles/cell) or mock-infected with medium only. Infected or mock-infected cells were resuspended at 8×10^5 cells per mL, and incubated with appropriate concentrations of the compounds to be tested. Two days later, XTT/PMS was added to test plates and the amount of formazan produced was quantified spectrophotometrically at 450/650 nm. The EC50 value was calculated as the concentration of compound that increased the percentage of formazan production in compound-treated, virus-infected cells to 50% of that produced by compound-free, mock-infected cells. The 50% cytotoxic dose (CC50) was calculated as the concentration of compound that decreased the percentage of formazan produced in compound-treated, mock-infected cells to 50% of that produced by compound-free, mock-infected cells. The therapeutic index (TI) was calculated by dividing the CC50 value by the EC50 value.
(§2) All strains of human rhinovirus (HRV) for use in this assay were purchased from American Type Culture Collection (ATCC), except for HRV serotype-14 (produced from the infectious cDNA clone constructed by Dr. Robert Rueckert, Institute for Molecular Virology, University of Wisconsin, Madison, Wis.). HRV stocks were propagated and viral assays were performed in H1-HeLa cells (ATCC). Cells were grown in minimal essential medium with 10% fetal bovine serum, available from Life Technologies (Gaithersburg, Md.).

[2] = Cytotoxicity in uninfected MRC-5 cells (anti-echoviral/-enteroviral assay, XTT); type: cell-based; conditions: human, 50% cytotoxic dose
Protocol: Echovirus type 11 (EV 11) and enterovirus type 70 (EV 70) were purchased from ATCC (Rockville, Md.). Virus stocks were propagated and antiviral assays were performed in MRC-5 cells (ATCC). Cells were grown in minimal essential medium with 10% fetal bovine serum (Life Technologies, Gaithersburg, Md.).
The ability of compounds to protect cells against either EV 11 or EV 70 infection was measured by the XTT dye reduction method (Weislow et al., J. Natl. Cancer Inst. 1989, vol. 81, 577-586). MRC-5 cells were infected with EV 11 or EV 70 at an m.o.i. of 0.003 or 0.004, respectively, or mock-infected with medium only. Infected or uninfected cells were added at 1×10^4 cells per well and incubated with appropriate concentrations of compound. Four days later, XTT/PMS was added to test plates, and the amount of formazan produced was quantified spectrophotometrically at 450/650 nm. The EC50 was calculated as the concentration of compound that increased the formazan production in compound-treated, virus-infected cells to 50% of that produced by compound-free, uninfected cells. The 50% cytotoxic dose (CC50) was calculated as the concentration of compound that decreased formazan production in compound-treated, uninfected cells to 50% of that produced in compound-free, uninfected cells. The therapeutic index (TI) was calculated by dividing the CC50 by the EC50.

[3] = Cytotoxicity in uninfected H1-HeLa cells (anticoxsackieviral assay, XTT); type: cell-based; conditions: human; 50% cytotoxic dose, uninfected H1-HeLa cells (Table 4)
Protocol: (§3) Coxsackievirus types A-21 (CAV-21) and B3 (CVB-3) were purchased from American Type Culture Collection (ATCC, Rockville, Md.). Virus stocks were propagated and antiviral assays were performed in H1-HeLa cells (ATCC). Cells were grown in minimal essential medium with 10% fetal bovine serum (Life Technologies, Gaithersburg, Md.).
(§4) The ability of compounds to protect cells against either CAV-21 or CVB-3 infection was measured by the XTT dye reduction method. This method is described in Weislow et al., J. Natl. Cancer Inst. 1989, vol. 81, 577-586. H1-HeLa cells were infected with CAV-21 or CVB-3 at a multiplicity of infection (m.o.i.) of 0.025 or 0.075, respectively, or mock-infected with medium only. H1-HeLa cells were plated at 4×10^4 cells per well in a 96-well plate and incubated with appropriate concentrations of the test compound. One day (CVB-3) or two days (CAV-21) later, XTT/PMS was added to test plates and the amount of formazan produced was quantified spectrophotometrically at 450/650 nm. The EC50 was calculated as the concentration of compound that increased the formazan production in compound-treated, virus-infected cells to 50% of that produced by compound-free, uninfected cells. The 50% cytotoxic dose (CC50) was calculated as the concentration of compound that decreased formazan production in compound-treated, uninfected cells to 50% of that produced in compound-free, uninfected cells. The therapeutic index (TI) was calculated by dividing the CC50 by the EC50.

HRV-14 = assay: Antirhinoviral H1-HeLa cell culture assay (XTT), HRV-14; type: cell-based, human rhinovirus; conditions: HRV serotype-14, H1-HeLa cells (Table 3); read-out: EC50
Protocol: Antirhinoviral H1-HeLa Cell Culture Assay
In this cell protection assay, the ability of compounds to protect cells against HRV infection was measured by the XTT dye reduction method, which is described in Weislow et al., J. Natl. Cancer Inst. 1989, vol. 81, 577-586.
as §1, §2
The compounds were tested against control compounds WIN 51711, WIN 52084, and WIN 54954 (obtained from Sterling-Winthrop Pharmaceuticals), Pirodavir (obtained from Janssen Pharmaceuticals), and Pleconaril (prepared according to the method described in Diana et al., J. Med. Chem 1995, vol. 38, 1355). Antiviral data obtained for the test compounds are shown in Tables 1 and 3, where all data are for HRV serotype-14 unless otherwise noted in parentheses.

H1-HeLa cells [4] = assay: Cytotoxicity in mock-infected H1-HeLa cells (antirhinoviral assay, XTT); type: cell-based; conditions: 50% cytotoxic dose
Protocol: as §1, §2

[5] = tested on: Coxsackievirus type B3 (CVB-3); assay: Anticoxsackieviral cell culture assay (XTT), CVB-3; type: cell-based; conditions: CVB-3, H1-HeLa cells; read-out: EC50
Protocol: (§5) Anticoxsackieviral Cell Culture Assay
as §3
as §4, with “The 50% cytotoxic dose (CC50) was calculated as the concentration of compound that decreased formazan production in compound-treated, uninfected cells to 50% of that produced in compound-free, uninfected cells.” left out, “EC50. […]” for “EC50.”

[6] = tested on: Coxsackievirus type A-21 (CAV-21); assay: Anticoxsackieviral cell culture assay (XTT), CAV-21; type: cell-based; conditions: CAV-21, H1-HeLa cells; read-out: EC50
Protocol: as §5, §3
as §4, with “The 50% cytotoxic dose (CC50) was calculated as the concentration of compound that decreased formazan production in compound-treated, uninfected cells to 50% of that produced in compound-free, uninfected cells.” left out, “EC50. […]” for “EC50.”

H1-HeLa cells [7] = assay: Cytotoxicity in uninfected H1-HeLa cells (anticoxsackieviral assay, XTT); type: cell-based; conditions: 50% cytotoxic dose, uninfected H1-HeLa cells (Table 4)
Protocol: as §3, §4

SMILES | CC50 at 2 days [1] [µM] | CC50 at 4 days [2] [µM] | CC50 [3] [µM] | pEC50 (HRV-14) | CC50 (H1-HeLa cells [4]) [µM] | further results
CCOC(=O)/C=C/[C@H](CCC(N)=O)NC(=O)[C@H](Cc1ccccc1)NC(=O)[C@H](CC(C)C)NC(=O)OCc1ccccc1 [Comparison Compound #2, Ethyl-3-(Cbz-L-Leu-L-Phe-L-Gln)-E-Propenoate] | > 320 |  |  |  |  | melting point: 219 to 221 °C
CCOC(=O)c1ccc(OCCC2CCN(c3ccc(C)nn3)CC2)cc1 [Pirodavir, reference compound] | > 10 | > 10 | > 100 |  |  | 
Cc1cc(CCCOc2c(C)cc(-c3noc(C(F)(F)F)n3)cc2C)on1 [Pleconaril, reference compound] | > 10 | > 10 | > 10 |  |  | 
Cc1cc(CCCCCCCOc2ccc(C3=NCCO3)cc2)on1 [WIN 51711, reference compound] |  |  |  | 6.11 | > 60 | 
Cc1cc(CCCCCCCOc2ccc(C3=N[C@@H](C)CO3)cc2)on1 [WIN 52084, reference compound] |  |  |  | 7.15 | > 10 | 
Cc1cc(CCCCCOc2c(Cl)cc(C3=NCCO3)cc2Cl)on1 [WIN 54954, reference compound] |  |  |  | 5.67 | > 63 | pEC50 [5]: < 4.00; pEC50 [6]: < 4.00; CC50 (H1-HeLa cells [7]): > 100 µM
